Experimental data as given in ChEMBL document CHEMBL4616622, “HSP70 induction by bleomycin metal core analogs” (Bioorg Med Chem Lett, 2020).
Activity calls are given as the source filed them. No cut-off for these calls is given here.

Assays:
PC-12 [1] = assay: Induction of HSP70 expression in rat PC12 cells at 10 uM incubated for 4 hrs by Western blot analysis; format: functional, cell-based
PC-12 [2] = assay: Induction of HSP70 expression in rat PC12 cells at 10 uM incubated for 4 hrs in presence of human betaNGF by Western blot analysis; format: functional, cell-based
PC-12 [3] = assay: Induction of HSP70 expression in rat PC12 cells at 10 uM incubated for 24 hrs by Western blot analysis; format: functional, cell-based
PC-12 [4] = assay: Cytotoxicity against rat PC12 cells assessed as reduction in cell viability at 30 uM incubated for 1 day by MTT assay relative to control; format: cell-based; details: pc-12, 24 h
PC-12 [5] = assay: Induction of HSP70 in rat PC12 cells assessed as upregulation of HSP70 mRNA at 10 uM incubated for 4 hrs by qRT-PCR analysis; format: cell-based
PC-12 [6] = assay: Induction of HSP70 expression in rat PC12 cells at 10 uM by Western blot analysis; format: functional, cell-based; details: TDE = time-dependent effect
PC-12 [7] = assay: Induction of HSP70 expression in rat PC12 cells at 7.5 uM incubated for 4 hrs by Western blot analysis; format: functional, cell-based
PC-12 [8] = assay: Induction of HSP70 expression in rat PC12 cells at 10 to 20 uM incubated for 4 hrs by Western blot analysis; format: functional, cell-based
PC-12 [9] = assay: Induction of HSP70 expression in rat PC12 cells at 5 to 30 uM incubated for 4 hrs by Western blot analysis; format: functional, cell-based

Compound	Activity (PC-12 [1])	also measured
COC(=O)[C@H](Cc1c[nH]cn1)NCc1cccc(CN[C@@H](Cc2cn(C(c3ccccc3)(c3ccccc3)c3ccccc3)cn2)C(=O)OC)n1	Active	Activity (PC-12 [2]): Active
COC(=O)[C@H](Cc1c[nH]cn1)NCc1cc(N(C)C)cc(CN[C@@H](Cc2cn(Cc3ccccc3)cn2)C(=O)OC)n1	inactive	
COC(=O)[C@H](Cc1c[nH]cn1)NCc1cc(N(C)C)cc(CN[C@@H](Cc2cn(C(c3ccccc3)(c3ccccc3)c3ccccc3)cn2)C(=O)OC)n1	Active	Activity (PC-12 [3]): Active; Activity (PC-12 [2]): Active; Activity (PC-12 [4]): > 50%; Activity (PC-12 [5]): Active; Activity (PC-12 [6]): Tde; Activity (PC-12 [7]): inactive; Activity (PC-12 [8]): Active
COC(=O)[C@H](Cc1c[nH]cn1)NCc1cccc(CN[C@@H](Cc2cn(C(c3ccccc3)(c3ccccc3)c3ccccc3)cn2)C(=O)OC)c1	inactive	
TEPRENONE	inactive	
COC(=O)[C@H](Cc1c[nH]cn1)NCc1cc(N(C)C)cc(CN[C@@H](Cc2cn(C)cn2)C(=O)OC)n1	inactive	
BLEOMYCIN	inactive	Activity (PC-12 [9]): inactive
COC(=O)[C@H](Cc1cn(C(c2ccccc2)(c2ccccc2)c2ccccc2)cn1)NCc1cc(N(C)C)cc(CN[C@@H](Cc2cn(C(c3ccccc3)(c3ccccc3)c3ccccc3)cn2)C(=O)OC)n1	inactive	
COC(=O)[C@H](Cc1cn(Cc2ccccc2)cn1)NCc1cc(N(C)C)cc(CN[C@@H](Cc2cn(Cc3ccccc3)cn2)C(=O)OC)n1	inactive	
COC(=O)[C@H](Cc1cn(C)cn1)NCc1cc(N(C)C)cc(CN[C@@H](Cc2cn(C)cn2)C(=O)OC)n1	inactive	
